Test results: patent publication US20260345527A1 (priority 2022, published 2026)
Read-outs that look alike come from different tables or passages of the source.

Experiments:
ALS = conditions: approved ALS therapeutics, background; cited from earlier work
TDP-43 [1] = experiment: TDP-43 aggregation in cytoplasm by immunofluorescence staining and fluorescence microscopy in H2O2-treated SH-SY5Y cells
[2] = system: HSPB8 (Heat Shock Protein Family B (Small) Member 8); conditions: sh-sy5y cells, 24 h
TDP-43 [3] = experiment: TDP-43 aggregation (TDP-43 aggregation kit) in H2O2-treated SH-SY5Y cells
TDP-25 = experiment: intracellular localization of TDP-25 in SH-SY5Y cells transfected with GFP-TDP-25 (fluorescence microscopy)
Text: (§1) In FIG. 4, blue fluorescence indicates the nucleus with DAPI, and green fluorescence indicates TDP-25 with GFP.
(§2) To construct an aggregation model of TDP-43 protein in the SH-SY5Y cells, which are human neuroblastoma cell lines, a GFP-TDP-25 plasmid was transfected into cells, and it may be confirmed that the transfected GFP-TPD-25 (GFP: green fluorescent protein) is present in the cytoplasm.

HSPB8 = experiment: protein expression of chaperone HSPB8 in SH-SY5Y cells
TDP-43 protein = experiment: inhibition of TDP-43 protein aggregation in SH-SY5Y cells (summary statements)
insoluble TDP-43 = experiment: expression of insoluble TDP-43 in GFP-TDP-25 TDP-43 aggregation model of SH-SY5Y cells; conditions: GFP-TDP-25 transfected cells; metformin (5 mM), colchicine (1000 nM) alone or in combination; FIG. 4 B and C
Text: as §1, §2

**Q.** What does the source list for `CC1=NN(c2ccccc2)C(=O)C1` [Edaravone]?
**A.** effect on life expectancy or disease progression in ALS patients (ALS): help extend life expectancy in patients by several months or delay the progression of the disease at an early stage; therapeutic effect in ALS (ALS): only a symptom-relieving effect

**Q.** What does the source list for `Nc1nc2ccc(OC(F)(F)F)cc2s1` [Riluzole]?
**A.** effect on life expectancy or disease progression in ALS patients (ALS): help extend life expectancy in patients by several months or delay the progression of the disease at an early stage; therapeutic effect in ALS (ALS): only a symptom-relieving effect

**Q.** Which “effect on TDP-43 aggregation in the cytoplasm” value (TDP-43 [1]) does the source give for `COc1cc2c(c(OC)c1OC)-c1ccc(OC)c(=O)cc1[C@@H](NC(C)=O)CC2` [colchicine] here?
**A.** did not inhibit

**Q.** And the “increase in HSPB8 mRNA expression” value [2]?
**A.** approximately 2 fold

**Q.** What about the “increase of TFEB mRNA expression” value (TFEB; sh-sy5y cells, 24 h) of the same compound?
**A.** 2-3 times

**Q.** What about the “effect on hydrogen peroxide-induced TDP-43 aggregation” value (TDP-43 [3]) of the same compound?
**A.** slight effect

**Q.** What about the “effect on TDP-25 accumulation in the cytoplasm” value (TDP-25) of the same compound?
**A.** did not affect

**Q.** And the “change in HSPB8 protein expression” value (HSPB8)?
**A.** inadequate change

**Q.** And the “reduction/inhibition of TDP-43 aggregation (summary)” value (TDP-43 protein)?
**A.** hardly reduced

**Q.** And the “increase of MAP1LC3A mRNA expression” value (MAP1LC3A; sh-sy5y cells, 24 h)?
**A.** 2-3 times

**Q.** And the “increase of SQSTM1/p62 mRNA expression” value (SQSTM1/p62; sh-sy5y cells, 24 h)?
**A.** 2-3 times

**Q.** With `OO` [hydrogen peroxide (H2O2), hydrogen peroxide] as the compound, how does the “induction of TDP-43 aggregation in the cytoplasm” value (TDP-43 [1]; 1 mM hydrogen peroxide, 1 hour, FIG. 3 A and B) read?
**A.** significantly induced TDP-43 aggregation in the cytoplasm

**Q.** What about the “induction of abnormal aggregation of TDP-43” value (TDP-43 [3]; 1 mM hydrogen peroxide, 1 hour, FIG. 2) of the same compound?
**A.** significantly induced abnormal aggregation of TDP-43

**Q.** Which “effect on TDP-43 aggregation in the cytoplasm” value (TDP-43 [1]; hydrogen peroxide-treated cells, drugs alone or in combination, FIG. 3 A and B) does the source give for `CN(C)C(=N)N=C(N)N` [metformin] here?
**A.** did not inhibit

**Q.** What about the “TFEB mRNA expression” value (TFEB; metformin alone, 0.1-5 mM, 24 hours, FIG. 5) of the same compound?
**A.** no effect

**Q.** What about the “effect on hydrogen peroxide-induced TDP-43 aggregation” value (TDP-43 [3]; 24 h drug, then 1 mM H2O2 for 1 hour, metformin 0.1-5 mM, colchicine 1-1000 nM, alone or in combination, FIG. 2) of the same compound?
**A.** did not have a significant effect

**Q.** What about the “effect on TDP-25 accumulation in the cytoplasm” value (TDP-25; GFP-TDP-25 transfected cells, drugs alone or in combination, FIG. 4 A) of the same compound?
**A.** did not affect

**Q.** And the “change in HSPB8 protein expression” value (HSPB8; metformin (5 mM) alone or colchicine (1000 nM) alone, FIG. 1 D)?
**A.** inadequate change

**Q.** What about the “reduction/inhibition of TDP-43 aggregation (summary)” value (TDP-43 protein; colchicine alone, metformin alone, or in combination) of the same compound?
**A.** hardly reduced

**Q.** What about the “MAP1LC3A mRNA expression” value (MAP1LC3A; metformin alone, 0.1-5 mM, 24 hours, FIG. 7) of the same compound?
**A.** no effect

**Q.** And the “SQSTM1/p62 mRNA expression” value (SQSTM1/p62; metformin alone, 0.1-5 mM, 24 hours, FIG. 6)?
**A.** no effect

**Q.** What about the “effect on expression of insoluble TDP-43” value (insoluble TDP-43) of the same compound?
**A.** slightly reduced
